Experimental data: patent US7112585B2, “Pyrimidine derivatives as corticotropin releasing factor inhibitors” (Bristol-Myers Squibb Company, priority 2003, dated 2006)

Experiments:
[1] = target: T1, cloned human CRF-R1 receptors (Homo sapiens, UniProt P34998); test: CRF-R1 Receptor Binding Assay (inhibition of 125I-ovine-CRF binding to cell membranes); parameters: key to activity: a: Ki≦100 nM; b: 100 nM<Ki≦500 nM; c: 500 nM<Ki≦5,000 nM; activity reported in percent inhibition at 10 μM; conditions: CRF assays; class d = activity only as percent inhibition at 10 μM (value not given)
T1 construct: the coding region was amplifies by PCR from start to stop codons; expressed in transfected cells; host or cells: 293EBNA (HEK 293 EBNA-1) cells, episomal vector phchCRFR, hygromycin-selected pool; membranes
T1 sequence (P34998 24-415): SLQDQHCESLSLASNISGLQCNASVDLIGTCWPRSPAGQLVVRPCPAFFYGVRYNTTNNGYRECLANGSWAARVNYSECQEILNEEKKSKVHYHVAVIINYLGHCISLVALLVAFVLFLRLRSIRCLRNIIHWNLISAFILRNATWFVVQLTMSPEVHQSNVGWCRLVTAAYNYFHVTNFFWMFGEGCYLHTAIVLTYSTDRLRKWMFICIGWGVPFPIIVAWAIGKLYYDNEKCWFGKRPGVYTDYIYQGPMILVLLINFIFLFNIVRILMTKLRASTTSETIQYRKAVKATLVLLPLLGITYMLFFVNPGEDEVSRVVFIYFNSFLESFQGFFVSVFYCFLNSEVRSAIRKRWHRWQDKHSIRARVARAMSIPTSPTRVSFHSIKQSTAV
Source text: CRF-R1 Receptor Binding Assay for the Evaluation of Biological Activity
The following is a description of the isolation of cell membranes containing cloned human CRF-R1 receptors for use in a standard binding assay as well as a description of the assay itself.
Messenger RNA was isolated from human hippocampus. The mRNA was isolated from human hippocampus. The mRNA was reverse transcribed using oligo (dt) 12–18 and the coding region was amplifies by PCR from start to stop codons. The resulting PCR fragment was cloned into the EcORV site of pGEMV, from whence the insert was reclaimed using XhoI+XbaI and cloned into the XhoI+XbaI sites of vector pm3as (which contains a CMV promoter, the SV′t′ splice and early poly A signals, an Eptein-Barr viral origin of replication, and a hygromycin selectable marker). The resulting expression vector, called phchCRFR was transfected in 293EBNA cells and cells retaining the episome were selected in the presence of […] hygromycin. Cells surviving 4 weeks of selection in hygromycin were pooled, adapted to growth in suspension and used to generate membranes for the binding assay described below. Individual aliquots containing approximately 1×10^8 of the suspended cells were then centrifuged to form a pellet and frozen. For the binding assay a frozen pellet described above containing 293EBNA cells transfected with hCRFR1 receptors is homogenized in 10 mL of ice cold tissue buffer (50 mM HEPES buffer pH 7.0, containing 10 MM MgCl2, 2 mM EGTA, 1 μg/mL apotinin, 1 μg/mL leupeptin and 1 μg/mL pepstatin). The homoginate is centrifuged at 40,000×g for 12 min and the resulting pellet rehomogenized in 10 mL of tissue buffer. After another centrifugation at 40,000×g for 12 min, the pellet is resuspended to a protein concentration of 360 μg/mL to be used in the assay.
Binding assays are performed in 96 well plates; each well having a 300 μL capacity. To each well is added 50 μL of test drug dilutions (final concentration of drugs range from 10^−10–10^−5 M), 100 μL of ^125I-ovine-CRF (^125I-o-CRF) (final concentration 150 pM) and 150 μL of the cell homoginate described above. Plates are then allowed to incubate at room temperature for 2 hours before filtering the incubate over GF/F filters (presoaked with 0.3% polyethyleneimine) using an appropriate cell harvester. Filters are rinsed 2 times with ice cold assay buffer before removing individual filters and assessing them for radioactivity on a gamma counter.
Curves of the inhibition of ^125I-o-CRF binding to cell membranes at various dilutions of test drug are analyzed by the iterative curve fitting program LIGAND [P. J. Munson and D. Rodbard, Anal. Biochem., 107:220 (1980), which provides Ki values for inhibition which are then used to assess biological activity. […]
Messenger RNA was isolated from human hippocampus. The mRNA was isolated from human hippocampus. The mRNA was reverse transcribed using oligo (dt) 12–18 and the coding region was amplifies by PCR from start to stop codons. The resulting PCR fragment was cloned into the EcORV site of pGEMV, from whence the insert was reclaimed using XhoI+XbaI and cloned into the XhoI+XbaI sites of vector pm3as (which contains a CMV promoter, the SV′t′ splice and early poly A signals, an Eptein-Barr viral origin of replication, and a hygromycin selectable marker). The resulting expression vector, called phchCRFR was transfected in 293EBNA cells and cells retaining the episome were selected in the presence of […] hygromycin. Cells surviving 4 weeks of selection in hygromycin were pooled, adapted to growth in suspension and used to generate membranes for the binding assay described below. […]
A frozen pellet described above containing 293EBNA cells transfected with hCRFR1 receptors or the rat frontal cortex tissue dissected from frozen rat brains was prepared as the source of membranes expressing CRF1 receptors used in binding assays. […]

activity [1] | melting point | Ki [1] | SMILES
d | 210 to 212 °C |  | Cc1cc(C)c(Nc2nc(C)ncc2S(=O)(=O)c2ccc(-c3cncnc3)cc2)c(C)c1 [Example 24, [2-Methyl-5-(4-pyrimidin-5-yl-benzenesulfonyl)-pyrimidin-4-yl]-(2,4,6-trimethylphenyl)-amine]
 | 215 to 217 °C | ≤ 100 nM | Cc1cc(C)c(Nc2nc(C)ncc2S(=O)(=O)c2ccc(-c3ncccn3)cc2)c(C)c1 [Example 25, [2-Methyl-5-(4-pyrimidin-2-yl-benzenesulfonyl)-pyrimidin-4-yl]-(2,4,6-trimethylphenyl)-amine]
 | 232 to 234 °C | 500 to 5000 nM | Cc1cc(C)c(Nc2nc(C)ncc2S(=O)(=O)c2ccc(-c3ccncc3)cc2)c(C)c1 [Example 26, [2-Methyl-5-(4-pyridin-4-yl-benzenesulfonyl)-pyrimidin-4-yl]-(2,4,6-trimethylphenyl)-amine]
 | 201 to 203 °C | ≤ 100 nM | Cc1cc(C)c(Nc2nc(C)ncc2S(=O)(=O)c2ccc(-c3ccccn3)cc2)c(C)c1 [Example 27, [2-Methyl-5-(4-pyridin-2-yl-benzenesulfonyl)-pyrimidin-4-yl]-(2,4,6-trimethylphenyl)-amine]
 | 190 to 192 °C | 500 to 5000 nM | Cc1cc(C)c(Nc2nc(C)ncc2S(=O)(=O)c2ccc(-c3cccnc3)cc2)c(C)c1 [Example 28, [2-Methyl-5-(4-pyridin-3-yl-benzenesulfonyl)-pyrimidin-4-yl]-(2,4,6-trimethylphenyl)-amine]
d | 240 to 242 °C |  | Cc1cc(C)c(Nc2nc(C)ncc2S(=O)(=O)c2ccc(C3=NCCN3)cc2)c(C)c1 [Example 29, {5-[4-(4,5-Dihydro-1H-imidazol-2-yl)-benzenesulfonyl]-2-methyl-pyrimidin-4-yl}-(2,4,6-trimethylphenyl)-amine]
d | 282 to 284 °C |  | Cc1cc(C)c(Nc2nc(C)ncc2S(=O)(=O)c2ccc(-c3ncc[nH]3)cc2)c(C)c1 [Example 30, {5-[4-(1H-Imidazol-2-yl)-benzenesulfonyl]-2-methyl-pyrimidin-4-yl}-(2,4,6-trimethylphenyl)-amine]
